The IC50 is the concentration that inhibits the measured activity by half. A lower IC50 goes with higher potency.

These results are taken from PubChem BioAssay AID2305 (GlaxoSmithKline (GSK), 2010).

Each structure is given as a SMILES string.

In the assay the test system is P. falciparum 3D7 growth, pLDH absorbance. The assay is described as follows: P. falciparum 3D7 growth inhibition, dose response, strain 3D7 (AID 2305).

`O=C(C=Cc1ccc(Cl)c(Cl)c1)NCCCCCN1CCC(CCCNC(=O)c2ccc3c(c2)OCO3)CC1` registered an IC50 of 150 nM.
In the case of `Cc1cc(N2CCCN(C)CC2)nc(Nc2ccc(Cl)cc2)n1` it was 800 nM.
In the case of `O=C(NCC1CCN(CC2CCCCC2)C1)c1cc(-c2cccc(Cl)c2)cs1` (configuration not stated) it was 1090 nM; in that of `O=C(Nc1cccc(-c2ccc(-c3nc4ccc(F)cc4[nH]3)cc2)c1)Nc1ccc(F)c(F)c1F`, 110 nM.
`CN1CCc2cc(NS(=O)(=O)c3ccc(-c4ccc(Cl)s4)cc3)c(N3CCCCC3)cc2CC1` displayed a half-maximal inhibitory concentration (IC50) of 730 nM. Against the preceding compound, the IC50 is about 6.6-fold higher.
For the compound `CCC1CN2CCc3cc(OC)c(OC)cc3C2CC1CC1NCCc2cc(OC)c(OC)cc21` (configuration not stated), the IC50 amounted to 140 nM.
In the case of `Clc1nc2ccccn2c1C=Cc1ccc2ccccc2n1` it was 270 nM; in that of `Cc1ccc(NC(=O)c2ccc3ncccc3c2)cc1OC1CCN(CCC(C)C)CC1`, 690 nM.
In the case of `O=C(N[C@H]1CCN(CCc2ccc(O[C@H]3CCNC3)c(F)c2)C1)c1ccc(Cl)c(Cl)c1` it was 1190 nM; in that of `CC(C)c1ccc2c(c1)C(=O)c1ccc(C(=O)O)cc1S2(=O)=O`, 470 nM.
Then `O=C(Nc1ccc(N2CCN(Cc3ccccc3)CC2)cc1)c1cccs1`, with 770 nM.
`CN(C)CCOc1cc(NC(=O)/C=C/c2cccc3ccccc23)ccc1I` gave an IC50 of 1260 nM.
In the case of `C=CCc1cc(SC)ccc1Oc1ccc(N)cc1` it was 740 nM.
In the case of `O=C(Nc1ccc2c(c1)CCNCC2)c1ccc(-c2ccc(Cl)cc2)cc1` it was 810 nM.
Then `CC(C)(CNC(=O)C1CCN(CCOCc2ccccc2)CC1)c1nc(-c2ccc(Cl)c(O)c2)c(-c2ccncc2)[nH]1`, with 620 nM; and `c1cc(CN2CCC(CCN3CCCCC3)CC2)cc(-c2cccc(-c3nc4ccccc4[nH]3)c2)c1`, with 140 nM.
The compound `O=[N+]([O-])c1cccc(CNCC2CCN(Cc3ccc(C(F)(F)F)cc3)CC2)c1` yielded an IC50 of 250 nM.
Then `CN(CCCCCN1CCC(NC(=O)Nc2ccc(Oc3ccccc3)cc2)C1)C(=O)/C=C/c1ccc(Cl)c(Cl)c1` (configuration not stated), with 420 nM; and `Cc1c(C)c2c(c(C)c1O)CC[C@@](C)(C(=O)N1CCC(CN3CCC(c4c[nH]c5ccccc45)CC3)CC1)O2`, with 660 nM.
In the case of `COc1cc(F)c2ncc(F)c([C@@H](O)CN3CCC(NCc4cc5c(cn4)OCCO5)CC3)c2c1` it was 480 nM.
Take `C[C@H](Cc1ccc(OCCCCCOc2ccc(C[C@@H](C)NC[C@H](O)c3cccc(Cl)c3)cc2)cc1)NC[C@H](O)c1cccc(Cl)c1`: the IC50 was found to be 190 nM.
Then `Cc1cc(F)ccc1[C@H]1C[C@H](N2CCOCC2)CCN1C(=O)N(C)[C@@H](C)c1cc(C(F)(F)F)cc(C(F)(F)F)c1`, with 760 nM.
Compound `COc1cc(CN2CCC(CO)(Cc3cccc(C(F)(F)F)c3)CC2)c(Cl)cc1O` came in with an IC50 of 900 nM.
In the case of `CCCC1(NC[C@@H](O)[C@H](Cc2ccccc2)NC(=O)c2cc(NCC)cc(N3CCCCS3(=O)=O)c2)CCCCC1` it was 250 nM; in that of `COc1ccc(-c2ccc3c(-c4ccc(F)cc4)cnc(N)c3c2)cn1`, 390 nM.
In the case of `CCCc1ccc(S(=O)(=O)NC2CCN(C(=O)Nc3ccc(I)cc3)CC2)cc1` it was 870 nM; in that of `COc1ccc(CCNCCCCCCNCCc2ccc(Cl)c3ccccc23)cc1OC`, 580 nM; in that of `Cc1cccc2[nH]c(-c3cccc(-c4ccc(CNCCNC(=O)c5ccnn5C)cc4)c3)nc12`, 170 nM.
Consider `COc1cc2nc(NCCc3cccc(Cl)c3)nc(NCc3ccccc3)c2cc1OC`, for which the IC50 was determined as 120 nM.
In the case of `Fc1cccc(COc2ccc(Nc3ncnc4sc(C#C[C@H]5CC[C@H](CN6CCOCC6)N5)cc34)cc2Cl)c1` it was 920 nM; in that of `CCC[C@@H]1CCN[C@H]([C@H](O)c2ccnc3ccc(OC)cc23)C1`, 730 nM; in that of `COc1cccc(NC(=O)Nc2c(-c3cccc(C(F)(F)F)c3)c(C(F)(F)F)nn2C)c1`, 910 nM.
Then `COc1ccc(/C=C/C(=O)NCCCCCN2CCC(c3c[nH]c4ccccc34)CC2)cc1O`, with 960 nM; and `Cc1cc(=O)[nH]c(-n2nc(C)cc2NC(=O)C2(c3ccc(Cl)cc3)CCCC2)n1`, with 290 nM.
In turn, `Nc1nc2c(ncn2COC2COP(=O)(O)OC2)c(=O)[nH]1` (configuration not stated) registered an IC50 of 450 nM.
In the case of `NC(=O)C1CCN(Cc2ccc(-c3cccc(-c4nc5ccc(F)cc5[nH]4)c3)cc2)CC1` it was 880 nM.
Regarding `O=C(/C=C/c1ccc(Cl)c(Cl)c1)NC1CCC(CN2CCC(c3nc4ccccc4s3)CC2)CC1` (configuration not stated), the IC50 came to 1020 nM.
In the case of `CC(C)(C)OC(=O)NCc1ccc(Nc2nnc(-c3cccc(C(=O)NCc4cc(C(F)(F)F)cc(C(F)(F)F)c4)c3)o2)cc1` it was 860 nM; in that of `COc1ccc(Nc2nc(NCc3cccc(NS(C)(=O)=O)c3)cc(-c3ccc(OC)cc3)n2)cc1`, 1220 nM.
With `O=C1CCCN1CCCNCc1ccc(-c2cccc(-c3nc4ccc(C(F)(F)F)cc4[nH]3)c2)cc1`, the IC50 is 190 nM.
In the case of `NCC(NC(=O)c1ccc(-c2c[nH]c3ncccc23)s1)c1ccccc1` (configuration not stated) it was 550 nM.
`CCOC(=O)c1c(CN2CCN(C)CC2)n(Cc2ccccc2)c2cc(Br)c(O)cc12` displayed an IC50 of 590 nM.
Then `COc1ccccc1CNC(=O)c1cc(OC)c(OC)cc1NC(=O)c1cccs1`, with 1440 nM; and `Cc1noc(C)c1-c1cccc(CNCc2cccc(-c3ccc(-c4nc5ccccc5[nH]4)cc3)c2)c1`, with 230 nM; and `CSc1ccc(CN2CCC(NC(=O)c3ccc(-c4cccc(Cl)c4)s3)CC2)cc1`, with 1290 nM.
Take `CN1CCN(CC(O)CNC(=O)Nc2ccc(Br)cc2)CC1` (configuration not stated): the half-maximal inhibitory concentration (IC50) is 150 nM.
In the case of `Cc1ccc(Nc2nc3cc(Nc4ccnc(Nc5ccc(CS(C)(=O)=O)cc5)n4)ccc3o2)cc1` it was 760 nM; in that of `CN(C)c1ccc(-c2csc(C(=O)NCC3CCN(CCC(C)(C)C)C3)c2)cc1` (configuration not stated), 1500 nM; in that of `CCN(CC)CCN(Cc1ccc(-c2ccc(C(F)(F)F)cc2)cc1)C(=O)Cn1c(CCC2CCCCC2)nc(=O)c2ccccc21`, 1390 nM.
Then `CC(C)(C)S[C@H]1S[C@H](SC(C)(C)C)[C@@H](OC(=O)c2ccccc2)C(OC(=O)c2ccccc2)[C@H]1OC(=O)c1ccccc1` (some centres not stated), with 940 nM.
In the case of `COc1ccc(C)c(Nc2ccnc(Nc3ccc(-c4cnc[nH]4)cc3)n2)c1` it was 1370 nM; in that of `CCN(CCO)CCc1cccc(Nc2nccc(-c3c(-c4ccc(NC(=O)C(C)(C)C)cc4)nn4ccccc34)n2)c1`, 710 nM.
`CC1(C)N=C(N)N=C(N)N1c1ccc2ccccc2c1` yielded an IC50 of 50 nM. This IC50 lies about 14-fold lower than the previous one.
For `Cc1ccc2c(=O)cc(CCc3cccc(F)c3F)n(CC(=O)N(Cc3ccc(-c4ccc(C(F)(F)F)cc4)cc3)C3CCN(C)CC3)c2n1`, the IC50 is 1260 nM.
In the case of `COc1cc2c(cc1OCCN1CCC(N3CCCCC3)CC1)N(C(=O)/C=C/c1ccccc1Cl)CC2` it was 280 nM; in that of `COCCn1c(-c2cccc(Cl)c2)nn(-c2ccc([N+](=O)[O-])cc2Cl)c1=S`, 740 nM; in that of `CC(C)(CNC(=O)C1CCN(Cc2ccoc2)CC1)c1nc(-c2ccc(Cl)c(O)c2)c(-c2ccncc2)[nH]1`, 870 nM.
On to `CC(C)CN1CCC(COc2ccc3ncn(-c4cc(O[C@H](C)c5ccccc5C(F)(F)F)c(C(N)=O)s4)c3c2)CC1`, for which the IC50 came out at 620 nM.
Then `OCCC1CCN(Cc2ccc(-c3ccc(-c4nc5ccccc5[nH]4)cc3)cc2)CC1`, with 770 nM.
Consider `CN1CCCN(Cc2cccc(-c3ccc(NC(=O)c4cccc(Cl)c4)cc3)c2)CC1`, for which the IC50 came to 930 nM.
In the case of `O=c1cc(NCCCNCc2cccc(I)c2)[nH]c2ccccc12` it was 1020 nM; in that of `O=C(CCc1ccccc1)N[C@H](Cc1c[nH]c2ccccc12)C(=O)N1CCC(NCc2ccc3c(c2)Cc2ccccc2-3)CC1`, 910 nM.
Then `CC(=O)Nc1ccc(CN2CCC(NC(=O)c3ccc(-c4cccc(F)c4)s3)CC2)cc1`, with 1430 nM; and `Cc1noc(C)c1-c1ccc2c(Nc3ccccc3C(C)(C)C)c(C(=O)NCc3ccc(C(F)(F)F)cc3)cnc2c1`, with 760 nM.
Then `CN1CCCC(CN2CCN(Cc3cccc(-c4csc(-c5nc6ccccc6[nH]5)c4)c3)CC2)C1` (configuration not stated), with 410 nM; and `CC(C)Cc1csc(NC(=O)C=Cc2ccco2)c1C(=O)O`, with 300 nM.
On to `NC1CCCN(Cc2ccc(-c3ccc(-c4nc5ccccc5[nH]4)s3)cc2)C1` (configuration not stated), for which the IC50 worked out at 670 nM.
In the case of `NC(N)=NN=Cc1ccc2ccc3ccccc3c2c1` it was 380 nM.
In the case of `O=C(Nc1ccnc(-c2cccnc2)n1)c1cc(C(F)(F)F)cc(C(F)(F)F)c1` it was 820 nM.
`Cc1ccc(O)cc1Nc1ccnc2cc(-c3csc(CNCCN4CCOCC4)n3)ccc12` came in with an IC50 of 880 nM.
In the case of `Cc1nc(-c2cccc(NC(C)C(=O)Nc3cc(C(F)(F)F)ccc3N3CCOCC3)c2)cs1` (configuration not stated) it was 240 nM; in that of `COc1cc(N(Cc2ccc(F)cc2)C(=O)c2ccc(-c3ccccc3)cc2)ccc1OCCN1CCCC1`, 830 nM; in that of `Cc1cnc(Nc2ccccc2)nc1N[C@@H](CCCN)C(=O)Nc1ccccc1`, 810 nM.
The compound `O=C(Cn1c(CCc2cccc(F)c2F)nc(=O)c2cccnc21)N(Cc1ccc(-c2ccc(C(F)(F)F)cc2)cc1)C1CCN(C2CCOCC2)CC1` registered an IC50 of 830 nM. This IC50 and that of the compound before are within 1.5-fold of each other.
Turning to `CC(C)(C)c1cc(C(=O)N2CCC(c3ccccn3)CC2)n(Cc2ccccc2)n1`, the IC50 was determined as 960 nM.
In the case of `O=C(/C=C/c1ccc(Cl)cc1)NCCCCCN1CCC(C(=O)Nc2cccc(Cl)c2)CC1` it was 850 nM; in that of `COC1CCC(C(=O)Nc2ccc(-c3cccc(-c4nc5c(C)cccc5[nH]4)c3)cc2)CC1` (configuration not stated), 580 nM; in that of `COc1cc(C(=O)N2CCOC(CCN3CC[C@@H]4c5ccccc5C[C@@H]43)(c3ccc(Cl)c(Cl)c3)C2)cc(OC)c1OC` (some centres not stated), 530 nM.
`Cc1cc(O)cc2c(C3CCN(CC4CCN(C(=O)/C=C/c5ccc(Cl)c(Cl)c5)CC4)CC3)c[nH]c12` returned an IC50 of 1090 nM.
Then `COc1ccc2nccc([C@@H](O)CN3CCC(NCc4cc5cccc(OCc6ccccc6)c5[nH]4)CC3)c2c1`, with 900 nM; and `COc1cc2c(cc1C=CC(=O)N1CCN(Cc3nc4sc(C)c(C)c4c(=O)[nH]3)CC1)OC(C)C2` (configuration not stated), with 1020 nM.
In turn, `Cc1ccc(NC(=O)c2ccc(Cl)cc2)cc1-c1ccc(C(=O)Nc2ccncc2)cc1` came in with an IC50 of 780 nM. This IC50 and that of the compound before are within 1.5-fold of each other.
